# Results from publication PMC6680845, “Screening and Evaluation of Xanthine Oxidase Inhibitors from Gnetum parvifolium in China” (Molecules, 2019).
# What was measured:
# [1] = DPPH free radical scavenging test; settings: DPPH 0.1 mM in methanol, 30 min in dark, 517 nm
# Protocol: The DPPH and ABTS· radical scavenging tests were measured according to the reported method with some modifications. For DPPH test, 0.5 mL of sample with different concentrations were mixed thoroughly with 2 mL of DPPH solution (0.1 mM in methanol). The mixture was then kept in dark for 30 min. Finally, the absorbance of solution was measured by an UV-Vis Spectrophotometer (UV2700, Shimadzu, Kyoto, Japan) at 517 nm.
# (§1) For ABTS test, ABTS solution (2 mL of ABTS stock solution (0.01 M) added to 58 mL phosphate buffers, pH 7.0) was incubated for 12 h and diluted with methanol for use. Then, 0.5 mL of samples with different concentrations were mixed thoroughly with 2 mL of ABTS solution. The mixture was kept in dark for 30 min, and the absorbance at 734 nm was measured by an UV-Vis Spectrophotometer. The same amount of water was used as control instead of sample. All experiments were performed in triplicate. The scavenging activity of DPPH and ABTS· radicals was calculated by the following formula: Radical scavenging rate% = 1 − As/A0 × 100 (2) where A0 was the absorbance of control and As was the absorbance of sample.
# [2] = ABTS radical scavenging test; settings: 30 min in dark, 734 nm
# Protocol: as §1
# [3] = target: xanthine oxidase (XO) (Bos taurus, UniProt P80457); experiment: XO inhibition type and kinetics (Lineweaver-Burk and secondary plots); assay type: biochemical; settings: for mode of XO inhibition: Lineweaver-Burk plots
# Protocol: In order to further exploring the inhibitory activities of four inhibitors, the inhibition type and inhibition kinetics constants were assayed.
# For inhibition test, 20 μL of XO solution (1 mg/mL in buffers) and 1 mL of sample with different concentrations were mixed in a quartz cuvette. Then, 1 mL of […] (1 mg/mL) was added to start reaction and the increase of absorbance at 295 nm in 100 s was recorded by an UV-Vis Spectrophotometer (UV2700, Shimadzu, Kyoto, Japan). […] All experiments were performed in triplicate. The inhibition of XO was calculated by the following formula. Inhibition% = (1 − ΔAs/ΔA0) × 100 (1) where ΔAs and ΔA0 are the changes of absorbance for sample and blank, respectively.
# xanthine oxidase (XO), sequence (P80457 2-1332): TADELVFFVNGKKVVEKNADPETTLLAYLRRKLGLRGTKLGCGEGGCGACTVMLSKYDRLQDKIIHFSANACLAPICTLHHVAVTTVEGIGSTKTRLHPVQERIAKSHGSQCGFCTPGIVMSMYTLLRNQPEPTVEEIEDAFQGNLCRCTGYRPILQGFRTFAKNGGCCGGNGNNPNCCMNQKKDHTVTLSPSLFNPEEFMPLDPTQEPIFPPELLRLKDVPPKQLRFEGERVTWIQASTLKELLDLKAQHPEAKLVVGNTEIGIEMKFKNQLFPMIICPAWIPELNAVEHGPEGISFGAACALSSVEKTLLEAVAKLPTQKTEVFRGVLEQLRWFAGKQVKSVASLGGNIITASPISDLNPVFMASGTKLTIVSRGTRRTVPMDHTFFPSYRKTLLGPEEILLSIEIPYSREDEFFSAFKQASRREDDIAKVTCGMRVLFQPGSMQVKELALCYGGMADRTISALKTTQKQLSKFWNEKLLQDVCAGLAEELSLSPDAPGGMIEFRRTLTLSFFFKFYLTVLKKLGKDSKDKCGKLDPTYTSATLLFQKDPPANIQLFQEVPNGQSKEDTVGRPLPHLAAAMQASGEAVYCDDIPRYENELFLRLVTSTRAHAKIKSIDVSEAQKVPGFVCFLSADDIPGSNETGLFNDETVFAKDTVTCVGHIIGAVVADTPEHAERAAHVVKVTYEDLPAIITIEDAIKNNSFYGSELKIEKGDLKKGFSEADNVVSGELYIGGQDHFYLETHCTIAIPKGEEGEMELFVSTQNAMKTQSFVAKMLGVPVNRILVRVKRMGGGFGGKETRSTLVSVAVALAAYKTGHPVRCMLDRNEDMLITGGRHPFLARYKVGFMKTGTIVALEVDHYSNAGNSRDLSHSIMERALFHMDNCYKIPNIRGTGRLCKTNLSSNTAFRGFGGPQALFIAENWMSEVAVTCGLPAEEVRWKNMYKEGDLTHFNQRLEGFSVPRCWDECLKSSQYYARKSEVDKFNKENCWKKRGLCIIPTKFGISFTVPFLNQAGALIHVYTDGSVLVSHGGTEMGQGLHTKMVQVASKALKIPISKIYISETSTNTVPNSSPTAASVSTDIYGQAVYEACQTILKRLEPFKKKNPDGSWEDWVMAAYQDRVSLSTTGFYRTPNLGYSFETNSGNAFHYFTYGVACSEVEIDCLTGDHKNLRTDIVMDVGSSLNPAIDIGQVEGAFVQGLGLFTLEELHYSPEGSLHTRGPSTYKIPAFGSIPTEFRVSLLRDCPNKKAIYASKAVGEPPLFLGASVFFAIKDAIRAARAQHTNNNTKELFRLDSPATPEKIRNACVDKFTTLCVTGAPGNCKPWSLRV
SMILES,EC50 [1] [µM],EC50 [2] [µM],mode of XO inhibition [3],Vmax ([3]; inhibitor [C] 2.6 μM) [mmol/min],Vmax ([3]; inhibitor [C] 3.9 μM) [mmol/min],Vmax ([3]; inhibitor [C] 5.3 μM) [mmol/min],Vmax ([3]; inhibitor [C] 3.3 μM) [mmol/min],Vmax ([3]; inhibitor [C] 4.9 μM) [mmol/min],Vmax ([3]; inhibitor [C] 6.6 μM) [mmol/min]
COc1cc(/C=C/c2cc(O)cc(O)c2)ccc1O [Isorhapontigenin],1450,300,uncompetitive type,0.168,0.134,0.061,–,–,–
Oc1cc(O)cc(/C=C/c2ccc(O)c(O)c2)c1 [Piceatannol],40,–,competitive type,–,–,–,0.160,0.164,0.157
Oc1ccc(/C=C/c2cc(O)cc(O)c2)cc1 [Resveratrol],–,–,uncompetitive type,–,–,–,0.173,0.106,0.088
